# Laboratory results taken from US12227501B2, “3-amino-2-[2-(acylamino)pyridin-4-yl]-1,5,6,7-tetrahydro-4h-pyrrolo[3,2-c]pyridin-4-one as CSNK1 inhibitors” (Bayer Aktiengesellschaft, priority 2019, dated 2025).
# Read-outs that look alike come from different tables or passages of the source.
# Experiments:
# Type in all cases: biochemical
# [1] = biological target: wild-type Epidermal Growth Factor Receptor (EGFR) (Homo sapiens (Human), UniProt P00533); assay: WT-EGFR Kinase Assay (TR-FRET, 2 mM ATP)
# wild-type Epidermal Growth Factor Receptor (EGFR), sequence (P00533 669-1210): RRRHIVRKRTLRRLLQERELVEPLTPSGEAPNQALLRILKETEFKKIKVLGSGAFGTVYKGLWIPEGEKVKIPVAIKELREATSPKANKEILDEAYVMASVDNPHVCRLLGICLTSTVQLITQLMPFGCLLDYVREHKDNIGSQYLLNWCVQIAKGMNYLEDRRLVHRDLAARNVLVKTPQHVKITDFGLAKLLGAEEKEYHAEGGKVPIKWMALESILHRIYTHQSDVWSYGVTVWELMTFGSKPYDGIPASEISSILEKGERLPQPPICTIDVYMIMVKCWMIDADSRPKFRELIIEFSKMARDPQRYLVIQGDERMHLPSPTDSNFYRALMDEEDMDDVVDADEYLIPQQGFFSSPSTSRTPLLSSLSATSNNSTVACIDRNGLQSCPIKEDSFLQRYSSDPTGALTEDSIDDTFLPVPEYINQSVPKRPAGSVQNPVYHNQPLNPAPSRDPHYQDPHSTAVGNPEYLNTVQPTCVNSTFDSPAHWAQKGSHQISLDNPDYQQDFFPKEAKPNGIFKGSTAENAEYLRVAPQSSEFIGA
# human CSNK1A1 [2] = biological target: T1, human CSNK1A1 (Homo sapiens (Human), UniProt P48729); assay: CSNK1A1 High ATP Assay (ADP-Glo, 1 mM ATP); conditions: read-out: CSNK1A1 high ATP assay IC50 [mol/l] (median)
# T1 sequence (P48729 whole entry): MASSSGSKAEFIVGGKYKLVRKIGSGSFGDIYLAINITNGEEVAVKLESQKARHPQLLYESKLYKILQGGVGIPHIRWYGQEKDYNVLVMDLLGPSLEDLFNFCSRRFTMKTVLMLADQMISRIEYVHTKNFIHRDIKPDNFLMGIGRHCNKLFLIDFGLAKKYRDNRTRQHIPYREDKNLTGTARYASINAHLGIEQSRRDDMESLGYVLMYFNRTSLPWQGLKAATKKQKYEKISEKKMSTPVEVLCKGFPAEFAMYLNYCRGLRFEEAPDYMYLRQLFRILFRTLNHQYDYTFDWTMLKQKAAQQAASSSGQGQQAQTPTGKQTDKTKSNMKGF
# Method: CSNK1A1-inhibitory activity of compounds of the present invention in presence of 1 mM adenosine-tri-phosphate (ATP) was quantified employing the CSNK1A1-high-ATP-assay as described in the following paragraphs. In essence, the enzyme activity is measured by quantification of the adenosine-di-phosphate (ADP), which is generated as a co-product of the enzyme reaction, via the “ADP-Glo™ Kinase Assay” kit from the company Promega. This detection system works as follows: In a first step the ATP not consumed in the kinase reaction is quantitatively converted to cAMP employing an adenylate cyclase (“ADP-Glo-reagent”), then the adenylate cyclase is stopped and the ADP generated in the kinase reaction converted to ATP which generates in a luciferase-based reaction a glow-luminescence signal (“Kinase Detection Reagent”).
# Recombinant fusion protein of N-terminal Glutathion-S-Transferase (GST) and full-length human CSNK1A1, expressed by baculovirus infected insect cells and purified via Glutathion affinity chromatography, was purchased from Life Technologies (product no. PV4174) and used as enzyme. As substrate for the kinase reaction the biotinylated peptide biotin-Ahx-KRRRAL-pS-VASLPGL (C-terminus in amide form) was used which can be purchased e.g. from the company Biosyntan (Berlin-Buch, Germany).
# For the assay 50 nl of a 100 fold concentrated solution of the test compound in DMSO was pipetted into a white low volume 384-well microtiter plate (Greiner Bio-One, Frickenhausen, Germany), 2 μL of a solution of CSNK1A1 in aqueous assay buffer [50 mM HEPES pH 7.5, 10% (v/v) glycerol, 10 mM MgCl2, 50 mM NaCl, 1 mM dithiothreitol, 0.01% (w/v) bovine serum albumin, 0.01% (v/v) Triton X-100] were added and the mixture was incubated for 15 min at 22° C. to allow pre-binding of the test compounds to the enzyme before the start of the kinase reaction. […] The concentration of CSNK1A1 was adjusted depending of the activity of the enzyme lot and was chosen appropriate to have the assay in the linear range, a typical concentration is about 0.4 ng/μL. The reaction was stopped by the addition of 2.5 μL of “ADP-Glo-reagent” (1:1.5 fold diluted with water) and the resulting mixture was incubated at 22° C. for 1 h to convert the ATP not consumed in the kinase reaction completely […]. Subsequently 2.5 μL of the “kinase detection reagent” (1.2 fold more concentrated than recommended by the producer) were added, the resulting mixture was incubated at 22° C. for 1 h and then the luminescence measured with a suitable measurement instrument (e.g. Viewlux™ from Perkin-Elmer). The amount of emitted light was taken as a measure for the amount of ADP generated and thereby for the activity of the CSNK1A1.
# human CSNK1A1 [3] = biological target: T1, human CSNK1A1; assay: CSNK1A1 Assay 2 (ADP-Glo, 1 μM ATP); conditions: substrate biotin-Ahx-KRRRAL-pS-VASLPGL, read-out: CSNK1A1 Assay 2 IC50 [mol/l] (median)
# Method: CSNK1A1-inhibitory activity of compounds of the present invention in presence of 1 μM adenosine-tri-phosphate (ATP) was quantified employing the CSNK1A1 assay as described in the following paragraphs. In essence, the enzyme activity is measured by quantification of the adenosine-di-phosphate (ADP), which is generated as a co-product of the enzyme reaction, via the “ADP-Glo™ Kinase Assay” kit from the company Promega. This detection system works as follows: In a first step the ATP not consumed in the kinase reaction is quantitatively converted to cAMP employing an adenylate cyclase (“ADP-Glo-reagent”), then the adenylate cyclase is stopped and the ADP generated in the kinase reaction converted to ATP which generates in a luciferase-based reaction a glow-luminescence signal (“Kinase Detection Reagent”). Recombinant fusion protein of N-terminal Glutathion-S-Transferase (GST) and full-length human CSNK1A1, expressed by baculovirus infected insect cells and purified via Glutathion affinity chromatography, was purchased from Life Technologies (product no. PV4174) and used as enzyme. As substrate for the kinase reaction the biotinylated peptide biotin-Ahx-KRRRAL-pS-VASLPGL (C-terminus in amide form) was used which can be purchased e.g. from the company Biosyntan (Berlin-Buch, Germany).
# For the assay 50 nl of a 100 fold concentrated solution of the test compound in DMSO was pipetted into a white 1536-well microtiter plate (Greiner Bio-One, Frickenhausen, Germany), 2 μL of a solution of CSNK1A1 in aqueous assay buffer [50 mM HEPES pH 7.5, 10% (v/v) glycerol, 10 mM MgCl2, 50 mM NaCl, 1 mM dithiothreitol, 0.01% (w/v) bovine serum albumin, 0.01% (v/v) Triton X-100] were added and the mixture was incubated for 15 min at 22° C. to allow pre-binding of the test compounds to the enzyme before the start of the kinase reaction. […] The concentration of CSNK1A1 was adjusted depending of the activity of the enzyme lot and was chosen appropriate to have the assay in the linear range, a typical concentrations are about 0.0375 ng/μL. The reaction was stopped by the addition of 2.5 μL of “ADP-Glo-reagent” (1:1.5 fold diluted with water) and the resulting mixture was incubated at 22° C. for 1 h to convert the ATP not consumed in the kinase reaction completely […]. Subsequently 2.5 μL of the “kinase detection reagent” (1.2 fold more concentrated than recommended by the producer) were added, the resulting mixture was incubated at 22° C. for 1 h and then the luminescence measured with a suitable measurement instrument (e.g. Viewlux™ from Perkin-Elmer). The amount of emitted light was taken as a measure for the amount of ADP generated and thereby for the activity of the CSNK1A1.
# human CSNK1D = human CSNK1D (Homo sapiens (Human), UniProt P48730); assay: CSNK1D Assay (ADP-Glo, 1 μM ATP); conditions: read-out: CSNK1D IC50 [mol/l] (median)
# human CSNK1D, sequence (P48730 whole entry): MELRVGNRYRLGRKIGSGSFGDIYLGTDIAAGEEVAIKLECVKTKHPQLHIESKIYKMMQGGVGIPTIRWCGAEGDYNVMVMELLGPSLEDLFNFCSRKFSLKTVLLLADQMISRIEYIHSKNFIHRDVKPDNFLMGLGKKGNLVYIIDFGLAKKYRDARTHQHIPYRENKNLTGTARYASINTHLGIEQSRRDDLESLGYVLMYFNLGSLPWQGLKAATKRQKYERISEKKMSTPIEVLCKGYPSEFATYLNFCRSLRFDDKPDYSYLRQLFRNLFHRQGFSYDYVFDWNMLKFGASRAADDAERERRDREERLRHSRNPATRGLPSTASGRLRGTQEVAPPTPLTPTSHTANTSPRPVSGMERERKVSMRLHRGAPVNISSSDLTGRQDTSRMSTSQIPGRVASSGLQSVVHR
# Method: CSNK1 D-inhibitory activity of compounds of the present invention in presence of 1 μM adenosine-tri-phosphate (ATP) was quantified employing the CSNK1D assay as described in the following paragraphs. In essence, the enzyme activity is measured by quantification of the adenosine-di-phosphate (ADP), which is generated as a co-product of the enzyme reaction, via the “ADP-Glo™ Kinase Assay” kit from the company Promega. This detection system works as follows: In a first step the ATP not consumed in the kinase reaction is quantitatively converted to cAMP employing an adenylate cyclase (“ADP-Glo-reagent”), then the adenylate cyclase is stopped and the ADP generated in the kinase reaction converted to ATP which generates in a luciferase-based reaction a glow-luminescence signal (“Kinase Detection Reagent”). Recombinant fusion protein of N-terminal Glutathion-S-Transferase (GST) and full-length human CSNK1D, expressed by baculovirus infected insect cells and purified via Glutathion affinity chromatography, was purchased from Life Technologies (product no. PV3665) and used as enzyme. As substrate for the kinase reaction the biotinylated peptide Btn-Ahx-[…] (C-terminus in amide form) was used which can be purchased e.g. from the company Biosyntan (Berlin-Buch, Germany).
# For the assay 50 nl of a 100 fold concentrated solution of the test compound in DMSO was pipetted into a white 1536-well microtiter plate (Greiner Bio-One, Frickenhausen, Germany), 2 μL of a solution of CSNK1D in aqueous assay buffer [50 mM HEPES pH 7.5, 10% (v/v) glycerol, 10 mM MgCl2, 50 mM NaCl, 1 mM dithiothreitol, 0.01% (w/v) bovine serum albumin, 0.01% (v/v) Triton X-100] were added and the mixture was incubated for 15 min at 22° C. to allow pre-binding of the test compounds to the enzyme before the start of the kinase reaction. […] The concentration of CSNK1 D was adjusted depending of the activity of the enzyme lot and was chosen appropriate to have the assay in the linear range, a typical concentration is about 0.5 ng/μL. The reaction was stopped by the addition of 2.5 μL of “ADP-Glo-reagent” (1:1.5 fold diluted with water) and the resulting mixture was incubated at 22° C. for 1 h to convert the ATP not consumed in the kinase reaction completely […]. Subsequently 2.5 μL of the “kinase detection reagent” (1.2 fold more concentrated than recommended by the producer) were added, the resulting mixture was incubated at 22° C. for 1 h and then the luminescence measured with a suitable measurement instrument (e.g. Viewlux™ from Perkin-Elmer). The amount of emitted light was taken as a measure for the amount of ADP generated and thereby for the activity of the CSNK1D.
# [4] = EGFR Wildtyp- 2 mM ATP IC50 [mol/l] (median)
# [5] = read-out: EGFR Wildtyp- 2 mM ATP IC50 [mol/l] (median)
SMILES,"IC50 [1, 4] [nM]",IC50 (human CSNK1A1 [2]) [nM],IC50 (human CSNK1A1 [3]) [nM],IC50 (human CSNK1D) [nM],"IC50 [1, 5] [nM]"
"CC(C(=O)Nc1cc(-c2[nH]c3c(c2Nc2ccccc2)C(=O)N(C)CC3)ccn1)c1ccc(Cl)cc1 (racemic) [Example 79, N-[4-(3-anilino-5-methyl-4-oxo-4,5,6,7-tetrahydro-1H-pyrrolo[3,2-c]pyridin-2-yl)pyridin-2-yl]-2-(4-chlorophenyl)propanamide]",> 20000,337,8.93,19.5,
"Cc1ccccc1Nc1c(-c2ccnc(NC(=O)C(C)c3ccc(F)cc3)c2)[nH]c2c1C(=O)NC(C)(C)C2 (racemic) [Example 132, N-{4-[6,6-dimethyl-3-(2-methylanilino)-4-oxo-4,5,6,7-tetrahydro-1H-pyrrolo[3,2-c]pyridin-2-yl]pyridin-2-yl}-2-(4-fluorophenyl)propanamide (Racemate)]",> 20000,915,24.3,32.9,
"CN1CCc2[nH]c(-c3ccnc(NC(=O)Cc4cccc(C(F)(F)F)c4)c3)c(Nc3ccccc3)c2C1=O [Example 116, N-[4-(3-anilino-5-methyl-4-oxo-4,5,6,7-tetrahydro-1H-pyrrolo[3,2-c]pyridin-2-yl)pyridin-2-yl]-2-[3-(trifluoromethyl)phenyl]acetamide]",,453,18.6,54.4,> 20000
"Cc1ccccc1Nc1c(-c2ccnc(NC(=O)C(C)c3ccc(F)cc3)c2)[nH]c2c1C(=O)NC(C)(C)C2 (single isomer, unassigned; enantiomer 1) [Example 133, (−)-N-{4-[6,6-dimethyl-3-(2-methylanilino)-4-oxo-4,5,6,7-tetrahydro-1H-pyrrolo[3,2-c]pyridin-2-yl]pyridin-2-yl}-2-(4-fluorophenyl)propanamide (Enantiomer 1)]",405,> 5710,197,280,
"CN1CCc2[nH]c(-c3ccnc(NC(=O)Cc4ccc(F)cc4)c3)c(Nc3cc(F)ccc3F)c2C1=O [Example 150, N-{4-[3-(2,5-difluoroanilino)-5-methyl-4-oxo-4,5,6,7-tetrahydro-1H-pyrrolo[3,2-c]pyridin-2-yl]pyridin-2-yl}-2-(4-fluorophenyl)acetamide]",> 20000,1270,17.9,26.6,18300
"CN(C)CCNC(=O)c1ccc(CC(=O)Nc2cc(-c3[nH]c4c(c3Nc3ccccc3)C(=O)N(C)CC4)ccn2)cc1 [Example 155, 4-(2-{[4-(3-anilino-5-methyl-4-oxo-4,5,6,7-tetrahydro-1H-pyrrolo[3,2-c]pyridin-2-yl)pyridin-2-yl]amino}-2-oxoethyl)-N-[2-(dimethylamino)ethyl]benzamide]",,48.5,3.12,7.01,476
"O=C(Cc1ccc(F)cc1)Nc1cc(-c2[nH]c3c(c2Nc2ccccc2)C(=O)N(C2CC2)CC3)ccn1 [Example 7, N-[4-(3-anilino-5-cyclopropyl-4-oxo-4,5,6,7-tetrahydro-1H-pyrrolo[3,2-c]pyridin-2-yl)pyridin-2-yl]-2-(4-fluorophenyl)acetamide]",,107,2.52,8.48,2740
"O=C1NC2(CCC2)Cc2[nH]c(-c3ccnc(NC(=O)C(CC(F)F)c4ccc(F)cc4)c3)c(Nc3ccccc3)c21 (single isomer, unassigned; (+)) [Example 55, (+)-N-[4-(3′-anilino-4′-oxo-1′,4′,5′,7′-tetrahydrospiro[cyclobutane-1,6′-pyrrolo[3,2-c]pyridin]-2′-yl)pyridin-2-yl]-4,4-difluoro-2-(4-fluorophenyl)butanamide]",1170,9.1,4.25,4.38,
"CN(C)CCCC(C(=O)Nc1cc(-c2[nH]c3c(c2Nc2ccccc2)C(=O)N(C)CC3)ccn1)c1ccccc1 (racemic) [Example 58, N-[4-(3-anilino-5-methyl-4-oxo-4,5,6,7-tetrahydro-1H-pyrrolo[3,2-c]pyridin-2-yl)pyridin-2-yl]-5-(dimethylamino)-2-phenylpentanamide]",> 20000,1200,12.4,40.6,
